Test system: Parkinson's disease
Assay: Y-maze test in rats with reserpine-induced Parkinson's disease
Assay type: in vivo, rat
Conditions: for No of arm entries / Spontaneous alterations (%): p.o. + Reserpine (4 mg/kg, s.c.), Y maze, Mean ± SEM, n = 6
Text: The induction of Parkinson's disease and measurement of other parameters were done as per the reported protocol (Santos et al., Cognitive, motor and tyrosine hydroxylase temporal impairment in a model of parkinsonism induced by reserpine. Behav Brain Res. 2013; 253:68-77 and Shishehbore et al. A novel kinetic spectrophotometric method for the determination of dopamine in biological and pharmaceutical samples. J Chem. 2013; 2013:1-6). Induction of Parkinson's disease was done by administering Resperine, which inhibits the monoamine vesicular transporters, thus decreasing the levels of monoamine neurotransmitters in the brain. Following pretreatment for 14 days with Gingerenone A, the rat groups received subcutaneous injections of reserpine (4 mg/kg) for the final five days of the treatment regimen. Resperine (5 mg) was dissolved in 1 ml of 1% acetic acid and then diluted tenfold with distilled water to achieve a final concentration of 500 μg/ml. The normal control group received saline with 1% acetic acid […], administered from day 10 to day 14. Thirty minutes following the administration of reserpine on the 14th day, behavioural assessments were conducted using the Open Field test, Y Maze, and Catalepsy tests to evaluate changes. Rats administered with Carbidopa, a known drug for the management of Parkinson's disease was also used for comparison. Upon completion of the study, brains were harvested for biochemical analyses and histopathological studies. The experimental group is depicted in table 10.
Y-maze test—In the Y-maze test, spontaneous alterations serve as an indicator of working short-term memory.
The maze consisted of a triangular central area with three equilateral arms labeled A, B, and C, each measuring 35 cm in length, 25 cm in height, and 10 cm in width. During the test, each rat was placed in the central area, facing one of the arms. An entry was scored when all four paws of the rat entered an arm. Spontaneous alterations in behavior were defined as consecutive entries into different arms (e.g., ABC, BCA, or CAB, but not CAC). The maximum number of spontaneous alterations ([…]) and the percentage of spontaneous alterations (actual number of alterations divided by the maximum alterations, multiplied by 100) were calculated for each rat (Kraeuter et al., The Y-Maze for Assessment of Spatial Working and Reference Memory in Mice. Methods Mol Biol. 2019; 1916:105-111).

Q: For `COc1cc(CC/C=C/C(=O)CCc2ccc(O)c(OC)c2)ccc1O` [Gingerenone A], which “No of arm entries” value (5 mg/kg) is on record?
A: 9.37 ± 0.29

Q: What about the “Spontaneous alterations (%)” value (5 mg/kg) of the same compound?
A: 21.43 ± 1.08 %

Q: What about the “No of arm entries” value (10 mg/kg) of the same compound?
A: 11.57 ± 0.92

Q: And the “Spontaneous alterations (%)” value (10 mg/kg)?
A: 26.87 ± 1.05 %

Q: And the “No of arm entries” value (20 mg/kg)?
A: 12.09 ± 1.39

Q: What about the “Spontaneous alterations (%)” value (20 mg/kg) of the same compound?
A: 26.21 ± 0.98 %

Q: And the “working memory in Y-maze (in words)” value (reserpine model, Table 12)?
A: significantly increase the working memory with increase in entries in the different arms with more number of alterations

Source: patent US20260325464A1, “COMPOSITIONS FOR MODULATING THE EXPRESSION OF AQUAPORINS IN NEURODEGENERATIVE DISORDERS” (priority 2023, published 2026)
